From PMC4480820, “Modafinil and its metabolites enhance the anticonvulsant action of classical antiepileptic drugs in the mouse maximal electroshock-induced seizure model” (Psychopharmacology, 2015)
Where two headings read alike, the source gives them in different places.

Tests used:
[1] = test system: passive avoidance performance in mice; experiment: Step-through passive avoidance task; format: in vivo, Swiss mice; settings: median (25th; 75th percentiles), observed up to 180 s
Method: The effects of combinations of modafinil (50 mg kg^−1), its metabolites (50 mg kg^−1), or GBR 12909 (25 mg kg^−1) with different classical AEDs were quantified by the step-through passive avoidance task of Venault et al. ([1986]). AEDs were administered at doses corresponding to their ED50 values from the MES test. Each animal received an AED either alone or in combination either with modafinil, sulfone, and acid metabolites or with GBR 12909 on the first day before training. The time before commencement of the training session (after drug administration) in the step-through passive avoidance task was identical to that for the MES test. Subsequently, the animals were placed in an illuminated box (10 × 13 × 15 cm) connected to a larger dark box (25 × 20 × 15 cm) equipped with an electric grid floor. Entrance of the animals to the dark box was punished by an adequate electric footshock (0.6 mA for 2 s). […] On the following day (24 h later), the pretrained animals were placed again into the illuminated box and observed for up to 180 s. Mice that avoided the dark compartment for 180 s were considered as having remembered the task. The time the mice took to enter the dark box was noted, and the median latencies (retention times) with 25th and 75th percentiles were calculated.

[2] = test system: skeletal muscular strength in mice; experiment: Grip strength test; format: in vivo, Swiss mice; settings: mean ± S.E.M.
Method: The effects of combinations of modafinil (50 mg kg^−1), sulfone and acid metabolites (50 mg kg^−1), or GBR 12909 (25 mg kg^−1) with different classical AEDs at doses corresponding to their ED50 values from the MES test on skeletal muscular strength in mice were quantified by the grip strength test of Meyer et al. ([1979]). The grip strength apparatus (BioSeb, Chaville, France) comprised a wire grid (8 × 8 cm) connected to an isometric force transducer (dynamometer). The mice were lifted by the tails so that their forepaws could grasp the grid. The mice were then gently pulled backward by the tail until the grid was released. The maximal force exerted by the mouse before losing grip was recorded. The mean of three measurements for each animal was calculated, and subsequently, the mean maximal force of eight animals per group was determined. The muscular strength in mice is expressed in N (newtons) as the means ± S.E.M. of at least eight determinations.

[3] = test system: motor coordination in mice; experiment: Chimney test; format: in vivo, Swiss mice; settings: n = 8 mice/group
Description: The chimney test of Boissier et al. ([1960]) was used to quantify the adverse effect potential of classical AEDs administered in combination with modafinil, its metabolites, or GBR 12909. In this test, the animals had to climb backwards up a plastic tube (3-cm inner diameter, 30 cm long), and impairment of motor performance was indicated by the inability of the mice to climb backward up the transparent tube within 60 s.

[4] = test system: MES-induced seizures in mice; design: method as in Chatterjie et al. [2004]; settings: 300 mg kg^−1 i.p., ref Chatterjie et al. [2004], cited from earlier work; for Protection against MES-induced seizures: administered alone
[5] = test system: threshold for electroconvulsions in mice; experiment: Maximal electroshock seizure threshold (MEST) test; settings: for TID20 (dose that increases threshold by 20 %): i.p., 30 min before test, from linear regression of dose vs threshold increase
[6] = test system: MES-induced seizures in mice; experiment: Maximal electroshock seizure (MES) test, AEDs alone and in combination; format: in vivo, Swiss mice; settings: AED + vehicle (alone), i.p., 25 mA, ± S.E.M.
Method: The stimulus duration was 0.2 s.
These parameters of stimulation (maximal electroshock) typically result in all mice responding with tonic hind limb extension immediately after stimulation. The AEDs administered alone and their combination with modafinil, its metabolites, or GBR 12909 were tested for their ability to increase the number of animals not responding with tonus (i.e., protected from tonic hind limb extension) after stimulation. […] After constructing a dose-effect curve (i.e., dose in mg kg^−1 vs percentage of mice protected), the protective median effective dose (ED50) value of the AED tested was calculated according to a log-probit method by Litchfield and Wilcoxon ([1949]). […] Modafinil, its two metabolites, and GBR 12909 were tested for their ability to affect the anticonvulsive potency of AEDs.

[7] = Total brain antiepileptic drug concentrations (fluorescence polarization immunoassay); settings: AED + vehicle, mean ± S.E.M., n = 8
Method: The whole brains of mice were removed from the skulls, weighed, harvested, and homogenized using Abbott buffer (1:2 weight/volume; Abbott Laboratories, North Chicago, IL, USA) in an Ultra-Turrax T8 homogenizer. The homogenates were then centrifuged at 10,000 g for 10 min, and the supernatant samples of 100 μl were collected and then analyzed for AED content. Total brain concentrations of CBZ, PB, PHT, and VPA were measured by a fluorescence polarization immunoassay using an analyzer (Abbott TDx) and manufacturer-supplied reagent kits (Abbott Laboratories, North Chicago, IL, USA). Total brain AED concentrations are expressed in μg g^−1 of wet brain tissue as means ± standard error of the mean (S.E.M.) of at least eight separate brain preparations.

[8] = test system: locomotor activation in mice; design: method as in Paterson et al. [2010]; settings: ref Paterson et al. [2010]; cited from earlier work
[9] = test system: electroconvulsions in mice; design: method as in Chen et al. [2007]; settings: ref Chen et al. [2007], cited from earlier work
CYP3A4/5 = settings: human liver microsomes; ref Robertson and Hellriegel [2003]; cited from earlier work
CYP2C9 = settings: human hepatocytes; ref Robertson and Hellriegel [2003]; cited from earlier work
[10] = compound alone 50 mg kg^−1 i.p. + vehicle
[11] = control of GBR series (Table 5)
[12] = control of MOD, SULF and ACID series (Tables 2-4)
[13] = i.p.: CBZ 4.3, PB 13.0, PHT 5.4, VPA 245.3 mg kg^−1 (control of MOD)
[14] = i.p.: CBZ 5.7, PB 14.0, PHT 6.0, VPA 226.4 mg kg^−1 (control of SULF)
[15] = i.p.: CBZ 6.4, PB 14.4, PHT 6.3, VPA 241.6 mg kg^−1 (control of ACID)
[16] = i.p.: CBZ 11.2, PB 15.4, PHT 7.0, VPA 211.4 mg kg^−1 (control of GBR)
[17] = GBR alone 25 mg kg^−1 i.p. + vehicle

| SMILES | Retention time [1, 10] | Grip strength [2, 10] [N] | Motor coordination impairment (number of animals showing impairment in the chimney test) [3, 10] | TI (percentage of threshold increase over vehicle control) ([5]; 12.5 mg kg^−1 i.p.) [%] | TI (percentage of threshold increase over vehicle control) ([5]; 25 mg kg^−1 i.p.) [%] | TI (percentage of threshold increase over vehicle control) ([5]; 50 mg kg^−1 i.p.) [%] | TI (percentage of threshold increase over vehicle control) ([5]; 75 mg kg^−1 i.p.) [%] | TID20 (dose that increases threshold by 20 %) [5] [mg/kg] | ED50 of the AED (protecting 50 % of animals against MES-induced hind limb extension) [6, 11] [mg/kg] | ED50 of the AED (protecting 50 % of animals against MES-induced hind limb extension) [6, 12] [mg/kg] | Brain concentration of the AED [7, 13] | Brain concentration of the AED [7, 14] | Brain concentration of the AED [7, 15] | Brain concentration of the AED [7, 16] | also measured |
| --- | --- | --- | --- | --- | --- | --- | --- | --- | --- | --- | --- | --- | --- | --- | --- |
| O=C(O)CSC(c1ccccc1)c1ccccc1 [ACID, diphenylmethylthioacetic acid] | 180 (133.5; 180) s | 0.961 ± 0.050 | 0/8 | 12.83 | 22.32 | 34.80 | 57.82 | 23.47 |  |  |  |  |  |  | Toxicity at the dose tested in the MES test [4]: toxic |
| NC(=O)N1c2ccccc2C=Cc2ccccc21 [CBZ, carbamazepine] |  |  |  |  |  |  |  |  | 15.53 ± 1.04 | 11.23 ± 1.20 | 2.41 ± 0.48 μg g^−1 of wet brain tissue | 3.76 ± 0.35 μg g^−1 of wet brain tissue | 4.46 ± 0.31 μg g^−1 of wet brain tissue | 6.66 ± 0.42 μg g^−1 of wet brain tissue |  |
| Fc1ccc(C(OCCN2CCN(CCCc3ccccc3)CC2)c2ccc(F)cc2)cc1 [GBR] |  |  |  | 19.18 | 25.67 | 44.53 |  | 16.37 |  |  |  |  |  |  | Retention time [1, 17]: 180 (133.5; 180) s; Grip strength [2, 17]: 0.937 ± 0.042 N; Motor coordination impairment (number of animals showing impairment in the chimney test) [3, 17]: 1/8; Dose eliciting equivalent locomotor activation [8]: 15 mg/kg; TI (percentage of threshold increase over vehicle control) ([5]; 6.25 mg kg^−1 i.p.): 11.25% |
| NC(=O)C[S+]([O-])C(c1ccccc1)c1ccccc1 (stereo not shown) [MOD, diphenylmethylsulfinylacetamide] | 180 (123.5; 180) s | 0.908 ± 0.053 | 0/8 | −2.78 | 2.78 | 22.88 | 35.46 | 49.12 |  |  |  |  |  |  | Protection against MES-induced seizures [4]: 100%; Mice protected against electroconvulsions ([9]; 22.5 mg kg^−1 i.p.): 50%; Mice protected against electroconvulsions ([9]; 45 mg kg^−1 i.p.): 70%; Mice protected against electroconvulsions ([9]; 90 mg kg^−1 i.p.): 90%; Mice protected against electroconvulsions ([9]; 180 mg kg^−1 i.p.): 70%; Dose eliciting equivalent locomotor activation [8]: 150 mg/kg; Inhibition of CYP3A4/5 (CYP3A4/5): weak inhibition; Inhibition of CYP2C9 (CYP2C9): inhibit |
| CCC1(c2ccccc2)C(=O)NC(=O)NC1=O [PB, phenobarbital] |  |  |  |  |  |  |  |  | 26.90 ± 2.15 | 20.80 ± 3.12 | 23.56 ± 1.10 μg g^−1 of wet brain tissue | 23.71 ± 0.86 μg g^−1 of wet brain tissue | 25.46 ± 0.84 μg g^−1 of wet brain tissue | 24.18 ± 0.70 μg g^−1 of wet brain tissue |  |
| O=C1NC(=O)C(c2ccccc2)(c2ccccc2)N1 [PHT, phenytoin] |  |  |  |  |  |  |  |  | 12.10 ± 1.20 | 11.00 ± 0.93 | 1.39 ± 0.20 μg g^−1 of wet brain tissue | 1.65 ± 0.19 μg g^−1 of wet brain tissue | 1.70 ± 0.15 μg g^−1 of wet brain tissue | 3.22 ± 0.30 μg g^−1 of wet brain tissue |  |
| NC(=O)CS(=O)(=O)C(c1ccccc1)c1ccccc1 [SULF, diphenylmethylsufonylacetamide] | 180 (180; 180) s | 0.957 ± 0.058 | 0/8 | 14.24 | 21.62 | 32.34 | 58.88 | 23.57 |  |  |  |  |  |  | Protection against MES-induced seizures [4]: 50% |
| CCCC(CCC)C(=O)O [VPA, valproate] |  |  |  |  |  |  |  |  | 286.7 ± 20.11 | 328.6 ± 13.17 | 299.73 ± 15.09 μg g^−1 of wet brain tissue | 276.30 ± 11.55 μg g^−1 of wet brain tissue | 346.98 ± 16.10 μg g^−1 of wet brain tissue | 173.66 ± 10.36 μg g^−1 of wet brain tissue |  |
